How the values were obtained:
[1] = test system: PNT2 cells (human prostate non-cancer cells); experiment: In vitro MTT-based drug sensitivity assay, PNT2 cells; settings: 72 h treatment, read-out: IC50 (cell viability, MTT)
Experimental: (§1) The human prostate cancer cells 22Rv1 and human prostate non-cancer cells PNT2 were purchased from ATCC. Cell lines were cultured according to the manufacturer’s instructions in 10% FBS/RPMI media (Invitrogen, Carlsbad, CA, USA) and handled as described in [29].
(§2) The in vitro cytotoxic activities of the isolated substances were evaluated by MTT assays. The assays were performed as described previously. In brief, cells were seeded in 96-well plates (6 × 10^3 cells/well), incubated overnight, and treated with the tested compounds for 72 h. Next, 10 μL/well of MTT reagent was added and the plates were incubated for 2 h. The media were aspirated and the plates were dried. The formed formazan crystals were dissolved in DMSO and the cell viability was measured using an Infinite F200PRO reader (TECAN, Männedorf, Switzerland). Results were calculated by the GraphPad Prism software v. 7.05 (GraphPad Prism software Inc., La Jolla, CA, USA) and are represented as the IC50 of the compounds against the control cells treated with the solvent alone.

[2] = test system: 22Rv1 cells (human drug-resistant prostate cancer cells); experiment: In vitro MTT-based drug sensitivity assay, 22Rv1 cells; settings: 72 h treatment, read-out: IC50 (cell viability, MTT)
Experimental: as §1, §2

[3] = test system: NCF-7; design: method as in PMID 12881017; settings: human cancer NCF-7 cell line; more active than curcumin; cited from earlier work
[4] = test system: HT-29; design: method as in PMID 12881017; settings: human cancer HT-29 cell line; more active than curcumin; cited from earlier work
[5] = test system: CaCO-2; design: method as in PMID 12881017; settings: human cancer CaCO-2 cell line; more active than curcumin; cited from earlier work

Structure (SMILES) | IC50 [1] | IC50 [2] | antitumor activity [3] | antitumor activity [4] | antitumor activity [5]
CC1=CCC(C)(C)C=CC(=O)C(CO)=CC(O)C1 (stereo not drawn) [Compound 1, 4-oxohumula-2E,5E,9E-trien-7S,12-diol] | 35.8 µM | 31 µM |  |  | 
CC(=O)OC1C=C(CO)C(=O)C=CC(C)(C)CC=C(C)C1 (stereo not drawn) [Compound 2, 4-oxohumula-2E,5E,9E-trien-7S-acetate,12-ol] | > 100 µM | > 100 µM |  |  | 
COc1cccc2c1C(=O)c1c(O)c3c(c(O)c1C2=O)C[C@@](O)(C(=O)CO)C[C@@H]3O[C@H]1C[C@H](N)[C@H](O)[C@H](C)O1 [Doxorubicine] | 1.12 µM | 0.084 µM |  |  | 
C/C1=C\CC(C)(C)/C=C/C(=O)/C(C)=C/CC1 [zurumbone, 2,6,9-humulatriene-8-one] |  |  | active | active | active

Reference: publication PMC7344390, “Leptogorgins A–C, Humulane Sesquiterpenoids from the Vietnamese Gorgonian Leptogorgia sp” (Marine Drugs, 2020)
